The source of these data is US20130178463A1, “ENHANCED TRANSBUCCAL DRUG DELIVERY SYSTEM AND COMPOSITIONS” (Rutgers, The State University of New Jersey, priority 2010, published 2013).

A short description of data set [1]: Histological study of buccal tissue (H&E, light microscopy). Set-up: species or system porcine. The note with it: after passive permeation (FIG. 6); light micrographs 40×.
Protocol: The morphological changes in both untreated and treated buccal tissues were evaluated using light microscopy. Buccal membrane samples were sectioned carefully and fixed in 10% buffered formalin for 1 day at room temperature. […] This was followed by immersing in xylene at least three times, and finally embedding in Tissue-Tek O.C.T. compound under dry ice. […] The stained slices were examined under a Nikon Eclipse E 800 light microscope (Micro Optics, Cedar Knolls, N.J.) at 40×. A Nikon Digital Camera (Model DXM 1200) was used to capture images. Images were processed by SPOT™ Imaging Software, Version 5.0 (Diagnostic Instrument, Inc., Sterling Heights, Mich.).
A histological study was performed to evaluate the integrity of treated and untreated porcine tissues using standard H&E methodology.
Data set [2] can be described thus: In vitro transbuccal permeation of 0.5% ODAN.HCl gel with iontophoresis and/or chemical enhancers (Franz diffusion cells).
Protocol: Buccal mucosa samples with underlying connective tissue were surgically removed from the pig check area and stored under −30° C. for future use. Prior to use, the samples were thawed at room temperature for at least 3 hours. Then the underlying connective tissue was removed using a scalpel blade and the remaining buccal mucosa was then carefully trimmed using surgical scissors to a thickness of about 300-400 μm. The buccal tissues were placed in phosphate buffered saline (PBS) with pH 7.5 for 1 hour prior to use.
Franz diffusion cells (PermeGear, Hellertown, Pa.) were used for all in vitro permeation studies using buccal tissue under varying conditions: passive (control); 1 hour enhancer pretreatment, 8 hours iontophoresis (0.1, 0.2 and 0.3 mA); and combined treatment of 1 hour enhancer treatment and 8 hours iontophoresis at 0.3 mA, and then passive only up to 24 hrs. All permeation studies were performed at 37° C.
For passive permeation studies, the Franz cell receptor compartment was filled with PBS solution and stirred at 600 rpm. […] At different time points (0.0, 0.5, 1. 3, 5, 8, 12, 20, 24 hrs), 300 μl sample was withdrawn from receptor compartment for HPLC analysis and immediately replaced with 300 μl of PBS (pH=7.5).
For iontophoresis, a Phoresor II Auto—Iontophoresis Power Device (Model PM 850) Iomed, Inc., provided 0.1, 0.2 and 0.3 MA for 8 hrs of treatment. […] The cathode (AgCl) was inserted into the receptor compartment. After 8 hours, iontophoresis was discontinued and then the passive-only permeation continued for 16 hrs. The sampling method and time points were the same as for passive and chemical enhancer pretreatment experiments.
An 8 hour iontophoresis period is referred to herein as Stage I. A post −8 hour iontophoresis period, passive only permeation period is referred to herein as Stage II.
The cumulative drug amount in the receptor compartment after 8 hrs and 24 hrs was defined as Q8 and Q24 (μg cm^−2), respectively. The enhancement ratio (ER) for flux was calculated as follows:
Franz diffusion cells were used for all in vitro permeation studies using buccal tissue under varying conditions: passive (control), 1 hour enhancer pretreatment, 8 hrs. iontophoresis (0.1, 0.2 and 0.3 mA), and combined treatment of 1 hr. enhancer pretreatment and 8 hrs. iontophoresis at 0.3 mA, and then passive only up to 24 hrs. All permeation studies performed at 37° C. The procedure for passive permeation studies described above was followed.
The concentration of ODAN.HCl in the receptor compartment was analyzed by HPLC. […] A C18 column (150×4.6 mm C18 (2) 100 A Luna 5 μm, Phenomenex) with a guard column was used at 25° C.
Data set [3] can be described thus: In vitro transdermal permeation of LHCl, NHT and DHCl gels (Franz diffusion cells). Particulars: for enhancement effect on transdermal delivery of NHT / enhancement effect on transdermal delivery of LHCl / enhancement effect on transdermal delivery of DHCl: in words, 1 hr. enhancer pretreatment, compared to control; for Flux / Q8: Transdermal.
Data set [4] is described as follows: In vitro transbuccal permeation of LHCl, NHT and DHCl gels (Franz diffusion cells). Particulars: for Q8 / Flux: Transbuccal.
Protocol: Buccal mucosa samples were harvested from pig's cheek area and placed below −30° C. The tissue samples were defrosted at room temperature first before use. Then a scalpel blade and a surgical scissor were used to remove the underlying connective tissue and trim the buccal mucosa to about 300 to 400 μm in thickness. Before each evaluation the buccal tissues were submerged in PBS (pH 7.5) for 1 hour.
Iontophoresis was terminated after 8 hour application.
Data set [5] can be described thus: Physicochemical properties stated in the description. Particulars: in words; reason for preparing solutions in PG only.
For data set [6] the following is noted: in words; drug description; cited from earlier work.
[7] abbreviates: Stage II after 8 h iontophoresis 0.2 mA.
Where [8] appears, read: in words, 1 hr. enhancer pretreatment, compared to control.
Where [9] appears, read: Control (untreated passive), 8 h (Tables 19-21).
Setting [10] is: iontophoresis 0.3 mA for 8 h (Tables 19-21).
Where [11] appears, read: iontophoresis 0.3 mA for 8 h, listed as nicotine hydrogen tartrate, tartrate.
The mark [12] stands for this setting: iontophoresis 0.3 mA for 8 h, tartrate.

The structures appear in SMILES notation. Counter-ions that a name gives are not always drawn. Marks after values point to notes of the source that are not given here.

Description for EpiOral™ tissue: MTS 3-(4,5-dimethylthiazol-2-yl)-5-(3-carboxymethoxyphenyl)-2-(4-sulfophenyl)-2H-tetrazolium, inner salt) assay was used to evaluate enhancer cytotoxicity in buccal tissues. […] The number of surviving cells is directly proportional to the level of the formazan. The color can then be quantified at 490 nm using a Microplate Power Wave X Scanning Spectrophotometer (Bio-TEK Instruments, Inc., Winooski, Vt.).
EpiOral™ tissue (ORL-200) was used, which is a multilayered tissue mainly composed of an organized basal layer and multiple non-cornified layers analogous to native human buccal tissue. A 24-well plate containing ORL-200 (cell culture inserts) was stored in the refrigerator (4° C.) prior to use. […] After this, 100 μl of the reacted MTS solution from each well was pipetted into a marked 96-well microtiter plate for spectrophotometer reading (SPR) at 490 nm using Microplate Power Wave X Scanning Spectrophotometer (Bio-TEK Instruments, Inc., Winooski, Vt.). […] The EpiOral tissue % viability at each of the dosed concentrations was calculated using the following formula: […]
Dose response curve was established using a semi-log scale to plot % viability (linear y axis) vs. the dosing time (log x axis). […] All the SPR were deducted from blank readings for viability and ET-50 value final calculations. […]

For the compound `Cc1nccn1CC1CCc2c(c3ccccc3n2C)C1=O` (racemic) [ODAN•HCl, (±) 1,2,3,9-tetrahydro-9-methyl-3-[(2-methyl-1H-imidazol-1-yl)methyl]-4H-carbazol-4-one, monohydrochloride, dihydrate], in data set [1], the “morphology of buccal tissue compared to untreated” value was “no major morphological changes”. Also, the Q8 was determined as 25.5 ± 5.1 µg/cm² in data set [2] (0.5% ODAN.HCl gel, Stage I, Control (passive)); 83.3 ± 33.5 µg/cm² in data set [2] (Stage I, iontophoresis 0.1 mA); 133 ± 50.1 µg/cm² in data set [2] (Stage I, iontophoresis 0.2 mA); 190 ± 42.7 µg/cm² in data set [2] (Stage I, iontophoresis 0.3 mA). Further, the Flux in data set [2] (0.5% ODAN.HCl gel, Stage I, iontophoresis 0.1 mA) is given as 10.6 ± 4.5^b μg/cm^2/h; in data set [2] (0.5% ODAN.HCl gel, Stage I, iontophoresis 0.2 mA) it was 16.5 ± 6.5^b μg/cm^2/h; in data set [2] (0.5% ODAN.HCl gel, Stage I, iontophoresis 0.3 mA), 22.8 ± 4.6^b μg/cm^2/h; in data set [2] (Stage II (8-24 h, passive) after 8 h iontophoresis 0.1 mA) it was 13.7 ± 4.3^b μg/cm^2/h; in data set [2] (setting [7]), 12.7 ± 5.3^b μg/cm^2/h; in data set [2] (Stage II after 8 h iontophoresis 0.3 mA, listed as ODAN.HCl, monohydrochloride, dihydrate), 11.9 μg/cm^2/h. The Flux in data set [2] (Stage II after 8 h iontophoresis 0.3 mA, monohydrochloride, dihydrate) is given as 11.9 ± 2.3^b μg/cm^2/h. Besides, the ER in data set [2] (Stage I, Control (reference)) worked out at 1; in data set [2] (Stage I, iontophoresis 0.1 mA, flux vs control), 3.3; in data set [2] (Stage I, iontophoresis 0.2 mA, flux vs control), 5.2; in data set [2] (Stage I, iontophoresis 0.3 mA, flux vs control) it was 7.1; in data set [2] (Stage II after 8 h iontophoresis 0.1 mA, flux vs control), 2.8; in data set [2] (Stage II after 8 h iontophoresis 0.2 mA, flux vs control) it was 2.6. For the same compound, the ER is listed as 2.4 in data set [2] (Stage II after 8 h iontophoresis 0.3 mA, flux vs control) and 1 in data set [2] (Stage II, Control (reference)). For the same compound, the Q24 was found to be 297 ± 90.1 µg/cm² in data set [2] (Stage II after 8 h iontophoresis 0.1 mA); 337 ± 130 µg/cm² in data set [2] (setting [7]); 380 ± 68.1 µg/cm² in data set [2] (Stage II after 8 h iontophoresis 0.3 mA); 105 ± 22.8 µg/cm² in data set [2] (Stage II, Control (passive)).

With `CCCCCCCCCCCCN1CCCCCC1=O` [Azone, 1-Dodecylazacycloheptan-2-one], the “enhancement effect on transdermal delivery of NHT” value in data set [3] is “no enhancement effect”. Besides, the “enhancement effect on transbuccal delivery of NHT” value in data set [4] (setting [8]) is on record as “no enhancement effect”.

Regarding `CS(C)=NC(=O)c1ccc(Br)cc1` [Br-iminosulfurane], the aqueous solubility entry in data set [5] is “low aqueous solubilities”. Besides, in data set [3], the “enhancement effect on transdermal delivery of LHCl” value was “enhanced” and the “enhancement effect on transdermal delivery of NHT” value is “no enhancement effect”. Further, in data set [4] (setting [8]), the “enhancement effect on transbuccal delivery of LHCl” value is “enhanced” and the “enhancement effect on transbuccal delivery of NHT” value is given as “no enhancement effect”.

In the case of `CCCCCCCCCCCCOC(=O)C(C)N(C)C` (stereo not shown) [DDAIP, dodecyl 2-(N,N dimethylamino) propionate], in data set [5], the aqueous solubility entry was “low aqueous solubilities”. In data set [3], the “enhancement effect on transdermal delivery of DHCl” value is given as “had enhancement effect”, the “enhancement effect on transdermal delivery of LHCl” value is reported as “had enhancement effect” and the “enhancement effect on transdermal delivery of NHT” value is recorded as “no enhancement effect”. In data set [4] (setting [8]), the “enhancement effect on transbuccal delivery of DHCl” value is reported as “had enhancement effect” and the “enhancement effect on transbuccal delivery of LHCl” value is reported as “had enhancement effect”. In addition, in data set [2] (in words, summary of Example 6), the “effectiveness in enhancing ODAN.HCl permeability across porcine buccal tissues” value is recorded as “only marginally effective”.

As for `CCCCCCCCCCCCOC(=O)C(C)N(C)C.Cl` (stereo not shown) [DDAIP.HCl, dodecyl-2-N,N-dimethylaminopropionate hydrochloride], in the data set on EpiOral™ tissue, the “effect on viability of EpiOral tissue compared to water” value is “did not reduce the viability”. Moreover, in data set [3], the “enhancement effect on transdermal delivery of DHCl” value is reported as “no enhancement effect”, the “enhancement effect on transdermal delivery of LHCl” value is “no enhancement effect” and the “enhancement effect on transdermal delivery of NHT” value was “no enhancement effect”.

For the compound `COc1ccc([C@@H]2Sc3ccccc3N(CCN(C)C)C(=O)[C@@H]2OC(C)=O)cc1` [Diltiazem HCl, 1,5-Benzothiazepin-4(5H) one, 3-(acetyloxy)-5-[2-(dimethylamino)ethyl]-2,3-dihyro-2-(4-methoxyphenyl)-, monohydrochloride, (+)-cis-], in data set [6], the solubility result was “soluble in water, methanol, and chloroform”.

As to `CCN(CC)CC(=O)Nc1c(C)cccc1C` [Lidocaine HCl, 2-(Diethylamino)-2′,6′-acetoxylidide mono-hydrochloride, monohydrate], the Q8 in data set [4] (setting [9]) is on record as 345.6 ± 74.3^ μg/cm^2; in data set [4] (setting [10]), 1910.2 ± 454.7^b μg/cm^2. Also, the Flux is reported as 44.7 ± 9.6 μg/cm^2*h in data set [4] (Control (untreated passive), 8 h, […] LHCl, 2% NHT or 2% DHCl gel, listed as lidocaine HCl, mono-hydrochloride, monohydrate); 137.1 ± 13.1^b μg/cm^2*h in data set [4] (iontophoresis 0.1 mA for 8 h); 241.7 ± 60.5^c μg/cm^2*h in data set [4] (iontophoresis 0.3 mA for 8 h, listed as lidocaine HCl, mono-hydrochloride, monohydrate); 241.7 ± 60.5^b μg/cm^2*h in data set [4] (iontophoresis 0.3 mA for 8 h, mono-hydrochloride, monohydrate).

Turning to `CN1CCCC1c1cccnc1.O=C(O)C(O)C(O)C(=O)O` (stereo not shown) [Nicotine Hydrogen Tartrate, Nicotine hydrogen tartrate], the solubility entry in data set [6] is listed as “soluble in water”. In addition, the Flux in data set [3] (Control (untreated passive), 8 h, […] LHCl, 2% NHT or 2% DHCl gel) is 1.3 ± 1.9 μg/cm^2*h; in data set [3] (iontophoresis 0.1 mA for 8 h) it was 56.1 ± 11.4^b μg/cm^2*h; in data set [3] (setting [11]), 138.4 ± 72.3^c μg/cm^2*h; in data set [3] (setting [12]) it was 138.4 ± 72.3^b μg/cm^2*h; in data set [4] (Control (untreated passive), 8 h, […] LHCl, 2% NHT or 2% DHCl gel, listed as nicotine hydrogen tartrate, tartrate) it was 0.9 ± 0.4 μg/cm^2*h; in data set [4] (iontophoresis 0.1 mA for 8 h), 17.6 ± 6.9^b μg/cm^2*h. Also, the Flux was 81.7 ± 35.9^c μg/cm^2*h in data set [4] (setting [11]) and 81.7 ± 35.9^b μg/cm^2*h in data set [4] (setting [12]). Further, the Q8 in data set [3] (Control (untreated passive), 8 h, tartrate) was 9.9 ± 14.6 μg/cm^2; in data set [3] (iontophoresis 0.1 mA for 8 h), 433.2 ± 85.4^b μg/cm^2; in data set [3] (setting [11]), 1326.6 ± 186.2^c μg/cm^2; in data set [3] (setting [12]), 1326.6 ± 186.2^b μg/cm^2; in data set [4] (setting [9]), 6.9 ± 2.6^ μg/cm^2; in data set [4] (setting [10]), 629.5 ± 276.8^b μg/cm^2.
